From ChEMBL document CHEMBL1150702, “3,3',5'-Tri-O-methylpiceatannol and 4,3',5'-tri-O-methylpiceatannol: improvements over piceatannol in bioactivity” (J Nat Prod, 1987)
≈ marks a conversion by molar mass, not a printed value. Calls of active or inactive are those of the source. The calls are words filed in the database; no cut-off is given here.

Legend:
Artemia salina = assay: Toxicity in Artemia salina; assay type: organism-based; conditions: in vivo
[1] = tested on: Agrobacterium tumefaciens; assay: Antitumor activity against Agrobacterium tumefaciens-induced crown gall tumor in potato tubers by potato disk test; assay type: functional
[2] = Cytotoxicity against human 9KB cells; assay type: functional; conditions: read-out: ED50 (the source's name)
[3] = Cytotoxicity against mouse 9PS cells; assay type: functional; conditions: read-out: ED50 (the source's name)
[4] = In vivo cytotoxicity against mouse 3PS cells at 50 mg/kg relative to control; assay type: functional
Mus musculus = assay: In vivo cytotoxicity against mouse 3PS cells up to 200 mg/kg relative to control; assay type: functional, organism-based; set-up: dose 200 mg/kg

| Structure (SMILES) | LC50 (Artemia salina) [ppm] | inhibition (INH) [1] [%] | EC50 [2] [µg/mL] | EC50 [3] [µg/mL] | T/C [4] [%] | Activity (Mus musculus) |
| --- | --- | --- | --- | --- | --- | --- |
| COc1cc(C=O)ccc1O [VANILLIN] | 31 |  |  |  |  |  |
| COc1cc(/C=C/c2ccc(OC)c(O)c2)cc(OC)c1 | 2.8 | 22 | < 0.01 | 0.1 (≈ 0.349 µM) | 119 |  |
| COc1cc(/C=C/c2ccc(O)c(OC)c2)cc(OC)c1 | > 1000 | 19 | 0.25 (≈ 0.873 µM) |  |  | inactive |
| Oc1cc(O)cc(/C=C/c2ccc(O)c(O)c2)c1 [PICEATANNOL] | 278 |  |  |  |  |  |
| COc1ccc(C=O)cc1O [ISOVANILLIN] | 31 |  |  |  |  |  |
